Target: T1, hFXR (Homo sapiens, UniProt Q96RI1)
T1 construct: expressed in transfected cells; host or cells: CV-1 cells
T1 sequence (Q96RI1 1-486): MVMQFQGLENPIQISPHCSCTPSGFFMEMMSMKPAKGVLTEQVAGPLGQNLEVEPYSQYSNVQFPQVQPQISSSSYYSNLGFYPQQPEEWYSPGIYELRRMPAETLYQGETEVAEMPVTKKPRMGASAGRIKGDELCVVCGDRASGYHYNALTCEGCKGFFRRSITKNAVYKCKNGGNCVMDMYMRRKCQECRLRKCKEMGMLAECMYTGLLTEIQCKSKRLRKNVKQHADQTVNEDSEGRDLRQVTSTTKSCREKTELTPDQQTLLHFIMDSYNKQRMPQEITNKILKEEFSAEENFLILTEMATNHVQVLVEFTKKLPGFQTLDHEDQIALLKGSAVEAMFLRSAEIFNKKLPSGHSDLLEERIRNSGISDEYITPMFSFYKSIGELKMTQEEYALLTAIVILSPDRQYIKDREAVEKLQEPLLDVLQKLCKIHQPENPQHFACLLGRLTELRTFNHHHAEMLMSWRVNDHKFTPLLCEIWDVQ
T1 sequence (P19793 1-462 partner): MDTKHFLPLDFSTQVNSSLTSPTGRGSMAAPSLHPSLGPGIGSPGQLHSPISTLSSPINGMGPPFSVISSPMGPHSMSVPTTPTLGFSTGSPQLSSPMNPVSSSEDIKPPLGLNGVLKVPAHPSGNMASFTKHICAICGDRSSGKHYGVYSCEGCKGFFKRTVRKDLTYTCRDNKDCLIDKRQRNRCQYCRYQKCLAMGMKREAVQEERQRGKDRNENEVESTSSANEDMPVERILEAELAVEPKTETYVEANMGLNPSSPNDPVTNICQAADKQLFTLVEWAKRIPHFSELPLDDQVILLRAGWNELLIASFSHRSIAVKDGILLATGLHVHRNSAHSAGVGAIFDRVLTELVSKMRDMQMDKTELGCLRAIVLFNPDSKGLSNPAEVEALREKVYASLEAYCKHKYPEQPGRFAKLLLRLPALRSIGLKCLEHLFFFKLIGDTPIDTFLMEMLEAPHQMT
Test: In Vitro FXR Assay (TK)
Assay type: cell-based
Settings: CV-1 cells transfected with hFXR, hRXR, TK-ECRE-luc and pCMX-YFP; compounds incubated 18 hrs; luminescence
Summary of the method: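 CV-1 cells transiently co-transfected with hFXR, hRXR, TK-ECRE-luc and pCMX-YFP plasmids in charcoal-stripped serum medium. Serially diluted compounds added, cells incubated 18 h at 37° C, then lysed and luminescence read.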

SMILES	EC50 [nM]
COCCOCc1ccc2c(N(Cc3ccc(-c4ccc(OC)c(C)c4)cc3)C(=O)CC(C)(C)C)nccc2c1 [Compound 9.04, N-((4′-Methoxy-3′-methyl-[1,1′-biphenyl]-4-yl)methyl)-N-(6-((2-methoxyethoxy)methyl)isoquinolin-1-yl)-3,3-dimethylbutanamide]	≤ 1000
COc1ccc(-c2ccc(CN(C(=O)CC(C)(C)C)c3nccc4cc(OCC(C)CO)ccc34)cc2)cc1C (centres unmarked) [Compound 10, N-(6-(3-Hydroxy-2-methylpropoxy)isoquinolin-1-yl)-N-((4′-methoxy-3′-methyl-[1,1′-biphenyl]-4-yl)methyl)-3,3-dimethylbutanamide]	≤ 1000
COc1ccc(-c2ccc(CN(C(=O)CC(C)(C)C)c3nccc4cc(OC(C)CCO)ccc34)cc2)cc1C (centres unmarked) [Compound 10.01, N-(6-((4-Hydroxybutan-2-yl)oxy)isoquinolin-1-yl)-N-((4′-methoxy-3′-methyl-[1,1′-biphenyl]-4-yl)methyl)-3,3-dimethylbutanamide]	≤ 1000
COc1ccc(-c2ccc(CN(C(=O)CC(C)(C)C)c3nccc4cc(OC5CCC(O)C5)ccc34)cc2)cc1C (centres unmarked) [Compound 10.02, N-(6-((3-Hydroxycyclopentyl)oxy)iso-quinolin-1-yl)-N-((4′-methoxy-3′-methyl-[1,1′-biphenyl]-4-yl)methyl)-3,3-dimethylbutanamide]	≤ 1000
COc1ccc(-c2ccc(CN(C(=O)CC(C)(C)C)c3nccc4cc(OCCC(C)O)ccc34)cc2)cc1C (centres unmarked) [Compound 10.03, N-(6-(3-Hydroxybutoxy)isoquinolin-1-yl)-N-((4′-methoxy-3′-methyl-[1,1′-biphenyl]-4-yl)methyl)-3,3-dimethylbutanamide]	≤ 1000
CCOc1ccc2c(N(Cc3ccc(-c4ccc(OC)c(C)c4)cc3)C(=O)CC(C)(C)C)nccc2c1 [Compound 11, N-(6-Ethoxyisoquinolin-1-yl)-N-((4′-methoxy-3′-methyl-[1,1′-biphenyl]-4-yl)methyl)-3,3-dimethylbutanamide]	≤ 1000
COc1ccc(-c2ccc(CN(C(=O)CC(C)(C)C)c3nccc4cc(OC(C)C)ccc34)cc2)cc1C [Compound 11.01, N-(6-Isopropoxyisoquinolin-1-yl)-N-((4′-methoxy-3′-methyl-[1,1′-biphenyl]-4-yl)methyl)-3,3-dimethylbutanamide]	≤ 1000
CCCOc1ccc2c(N(Cc3ccc(-c4ccc(OC)c(C)c4)cc3)C(=O)CC(C)(C)C)nccc2c1 [Compound 11.02, N-((4′-Methoxy-3′-methyl-[1,1′-biphenyl]-4-yl)methyl)-3,3-dimethyl-N-(6-propoxyisoquinolin-1-yl)butanamide]	≤ 1000
COc1ccc2ccnc(N(Cc3ccc(-c4ccc(OC)c(C)c4)cc3)C(=O)CC(C)(C)C)c2c1 [Compound 11.03, N-((4′-Methoxy-3′-methyl-[1,1′-biphenyl]-4-yl)methyl)-N-(7-methoxyisoquinolin-1-yl)-3,3-dimethylbutanamide]	≤ 1000
COc1ccc(-c2ccc(CN(C(=O)CC(C)(C)C)c3nccc4c(OC)cccc34)cc2)cc1C [Compound 11.04, N-((4′-Methoxy-3′-methyl-[1,1′-biphenyl]-4-yl)methyl)-N-(5-methoxyisoquinolin-1-yl)-3,3-dimethylbutanamide]	1000 to 10000
COc1ccc(-c2ccc(CN(C(=O)CC(C)(C)C)c3nccc4cc(C)ccc34)cc2)cc1C [Compound 12, N-((4′-Methoxy-3′-methyl-[1,1′-biphenyl]-4-yl)methyl)-3,3-dimethyl-N-(6-methylisoquinolin-1-yl)butanamide]	≤ 1000
COc1ccc(-c2ccc(CN(C(=O)CC(C)(C)C)c3nccc4ccc(C#N)cc34)cc2)cc1C [Compound 13, N-(7-Cyanoisoquinolin-1-yl)-N-((4′-methoxy-3′-methyl-[1,1′-biphenyl]-4-yl)methyl)-3,3-dimethylbutanamide]	1000 to 10000
COc1ccc(-c2ccc(CN(C(=O)CC(C)(C)C)c3nccc4c(C#N)cccc34)cc2)cc1C [Compound 13.02, N-(5-Cyanoisoquinolin-1-yl)-N-((4′-methoxy-3′-methyl-[1,1′-biphenyl]-4-yl)methyl)-3,3-dimethylbutanamide]	> 10000
COc1ccc(-c2ccc(CN(C(=O)CC(C)(C)C)c3nccc4cc(-c5ncco5)ccc34)cc2)cc1C [Compound 14, N-((4′-Methoxy-3′-methyl-[1,1′-biphenyl]-4-yl)methyl)-3,3-dimethyl-N-(6-(oxazol-2-yl)isoquinolin-1-yl)butanamide]	≤ 1000
COc1ccc(-c2ccc(CN(C(=O)CC(C)(C)C)c3nccc4cc(-c5nccs5)ccc34)cc2)cc1C [Compound 14.01, N-((4′-Methoxy-3′-methyl-[1,1′-biphenyl]-4-yl)methyl)-3,3-dimethyl-N-(6-(thiazol-2-yl)isoquinolin-1-yl)butanamide]	≤ 1000
COc1ncc(-c2ccc3c(N(Cc4ccc(-c5ccc(OC)c(C)c5)cc4)C(=O)CC(C)(C)C)nccc3c2)s1 [Compound 15, N-((4′-Methoxy-3′-methyl-[1,1′-biphenyl]-4-yl)methyl)-N-(6-(2-methoxythiazol-5-yl)isoquinolin-1-yl)-3,3-dimethylbutanamide]	1000 to 10000
COc1cccc(-c2ccc3c(N(Cc4ccc(-c5ccc(OC)c(C)c5)cc4)C(=O)CC(C)(C)C)nccc3c2)n1 [Compound 15.01, N-((4′-Methoxy-3′-methyl-[1,1′-biphenyl]-4-yl)methyl)-N-(6-(6-methoxypyridin-2-yl)isoquinolin-1-yl)-3,3-dimethylbutanamide]	1000 to 10000
COc1ccc(-c2ccc(CN(C(=O)CC(C)(C)C)c3nccc4cc(-c5ccccn5)ccc34)cc2)cc1C [Compound 16, N-((4′-Methoxy-3′-methyl-[1,1′-biphenyl]-4-yl)methyl)-3,3-dimethyl-N-(6-(pyridin-2-yl)isoquinolin-1-yl)butanamide]	≤ 1000
COc1ccc(-c2ccc(CN(C(=O)CC(C)(C)C)c3nccc4cc(C(C)(C)O)ccc34)cc2)cc1C [Compound 17, N-(6-(2-Hydroxypropan-2-yl)isoquinolin-1-yl)-N-((4′-methoxy-3′-methyl-[1,1′-biphenyl]-4-yl)methyl)-3,3-dimethylbutanamide]	≤ 1000
COc1ccc(-c2ccc(CN(C(C)=O)c3nccc4cc(C(C)(C)O)ccc34)cc2)cc1C [Compound 18, N-(6-(2-Hydroxypropan-2-yl)isoquinolin-1-yl)-N-((4′-methoxy-3′-methyl-[1,1′-biphenyl]-4-yl)methyl)acetamide]	> 10000
COc1ccc(-c2ccc(CN(C(=O)CC(C)(C)C)c3nccc4cc(C(=O)N(C)C)ccc34)cc2)cc1C [Compound 19, 1-(N-((4′-Methoxy-3′-methyl-[1,1′-biphenyl]-4-yl)methyl)-3,3-dimethylbutanamido)-N,N-dimethylisoquinoline-6-carboxamide]	≤ 1000
CNC(=O)c1ccc2c(N(Cc3ccc(-c4ccc(OC)c(C)c4)cc3)C(=O)CC(C)(C)C)nccc2c1 [Compound 19.01, 1-(N-((4′-Methoxy-3′-methyl-[1,1′-biphenyl]-4-yl)methyl)-3,3-dimethylbutanamido)-N-methylisoquinoline-6-carboxamide]	1000 to 10000
COc1ccc(-c2ccc(CN(C(=O)CC(C)(C)C)c3nccc4cc(COCC(=O)N(C)C)ccc34)cc2)cc1C [Compound 19.02, N-(6-((2-(Dimethylamino)-2-oxoethoxy)methyl)isoquinolin-1-yl)-N-((4′-methoxy-3′-methyl-[1,1′-biphenyl]-4-yl)methyl)-3,3-dimethylbutanamide]	1000 to 10000
COc1ccc(-c2ccc(CN(C(=O)CC(C)(C)C)c3nccc4ccccc34)cc2)cc1C [Compound 20, N-(Isoquinolin-1-yl)-N-((4′-methoxy-3′-methyl-[1,1′-biphenyl]-4-yl)methyl)-3,3-dimethylbutanamide]	≤ 1000
COC(=O)c1cc(-c2ccc(OC)c(C)c2)ccc1CN(C(=O)CC(C)(C)C)c1nccc2cc(OC)ccc12 [Compound 20.01, Methyl 4′-methoxy-4-((N-(6-methoxyisoquinolin-1-yl)-3,3-dimethylbutanamido)methyl)-3′-methyl-[1,1′-biphenyl]-3-carboxylate]	> 10000
COC(=O)c1cc(CN(C(=O)CC(C)(C)C)c2nccc3cc(OC)ccc23)ccc1-c1ccc(OC)c(C)c1 [Compound 20.02, Methyl 4′-methoxy-4-((N-(6-methoxyisoquinolin-1-yl)-3,3-dimethylbutanamido)methyl)-3′-methyl-[1,1′-biphenyl]-2-carboxylate]	≤ 1000

Source: US20200131132A1, “FARNESOID X RECEPTOR AGONISTS AND USES THEREOF” (Metacrine, Inc., priority 2017, published 2020)
